Like-named read-outs stand apart in the source and are kept apart here.
Key:
[1] = target: T1, HIV-1 RT double mutant K103N/Y181C (Human immunodeficiency virus type 1 group M subtype B, UniProt P03366, K702N/Y780C); experiment: biochemical
T1 construct: HIV-1 wild type reverse transcriptase as well as the clinically significant double mutant K103N/Y181C
Method: (§1) Utilizing the Reverse Transcriptase (RT) Assay described below, compounds were tested for their ability to inhibit the RNA-dependent DNA polymerase activity of HIV-1 RT. Certain specific compounds described in the Examples and in Tables 1-4, were so tested. The results of this testing appear in Table 5 as ranges of IC50 (nM) and EC50 (nM).
(§2) Reverse Transcriptase (RT) Assays

[2] = system: HIV-1 double mutant K103N/Y181C; experiment: microbe, parasite or virus in culture; assay type: cell-based
[3] = target: T2, HIV-1 wild type reverse transcriptase (Human immunodeficiency virus type 1 group M subtype B, UniProt P03366); experiment: biochemical; settings: read-out: IC50 WT RT
T2 construct: HIV-1 wild type reverse transcriptase
Method: as §1, §2

[4] = Human immunodeficiency virus 1, read-out: EC50 K103N/Y181C (nM)
[5] = RT double mutant K103N/Y181C, read-out: IC50 K103N/Y181C

SMILES	IC50 [1] [nM]	IC50 ([3]; wild type RT) [nM]	IC50 [1, 5] [nM]	also measured
CCN1c2ncc(CCOc3ccc(-n4ccnc4)cc3C)cc2C(=O)N(C)c2cccnc21 [Entry 1098, 11-Ethyl-5,11-dihydro-8-{2-[4-(1H-imidazol-1-yl)-2-methylphenoxy]ethyl}-5-methyl-6H-dipyrido[3,2-b:2′,3′-e][1,4]diazepin-6-one]	< 50	–	–	EC50 [2, 4]: < 10 nM
CCN1c2ncc(CCOc3ccc(NS(C)(=O)=O)cc3C)cc2C(=O)N(C)c2cccnc21 [Entry 4005]	< 50	< 50	–	–
CCN1c2ncc(CCOc3ccc(-c4ccc(C(=O)O)c(C)c4)cc3C)cc2C(=O)N(C)c2cccnc21 [Entry 1017]	–	< 50	< 50	–
CCN1c2ncc(CCOc3ccc(-c4ccnc(C)c4)cc3C)cc2C(=O)N(C)c2cccnc21 [Entry 1085]	–	< 50	< 50	–
CCN1c2ncc(CCOc3ccc(Nc4ccc(C(=O)O)cn4)cc3C)cc2C(=O)N(C)c2cccnc21 [Entry 3025]	< 50	–	–	EC50 [2, 4]: 10 to 50 nM
CCN1c2ncc(CCOc3ccc(-c4ccc(CC(=O)O)cc4[N+](=O)[O-])cc3C)cc2C(=O)N(C)c2cccnc21 [Entry 1027]	–	< 50	50 to 100	–
CCN1c2ncc(CCOc3ccc(-c4ccc(C)nc4)cc3C)cc2C(=O)N(C)c2cccnc21 [Entry 1072]	–	–	< 50	EC50 ([2]; double mutant K103N/Y181C, read-out: EC50 K103N/Y181C): < 10 nM
CCN1c2ncc(CCOc3ccc(-c4ccc(CC(=O)O)cc4Cl)cc3C)cc2C(=O)N(C)c2cccnc21 [Entry 1025]	–	< 50	< 50	–
CCN1c2ncc(CCOc3ccc(-c4cc(F)c(O)c(F)c4)cc3C)cc2C(=O)N(C)c2cccnc21 [Entry 1103]	–	< 50	50 to 100	–
CCN1c2ncc(CCOc3ccc(N(C)c4ccc(C(=O)O)cc4)cc3C)cc2C(=O)N(C)c2cccnc21 [Entry 3023]	50 to 100	< 50	–	–
CCN1c2ncc(CCOc3ccc(-c4cc[n+]([O-])c(C)c4)cc3C)cc2C(=O)N(C)c2cccnc21 [Entry 1086]	–	< 50	< 50	–
CCN1c2ncc(CCOc3ccc(N(Cc4ccc(C(=O)O)cc4)C(C)=O)cc3C)cc2C(=O)N(C)c2cccnc21 [Entry 4003]	> 100	50 to 100	–	–
CCN1c2ncc(CCOc3ccc(-c4cc(C)nc(C)c4)cc3C)cc2C(=O)N(C)c2cccnc21 [Entry 1087]	–	< 50	< 50	–
CCN1c2ncc(CCOc3ccc(-c4ccc(C)[n+]([O-])c4C)cc3C)cc2C(=O)N(C)c2cccnc21 [Entry 1078]	–	< 50	< 50	–
CCN1c2ncc(CCOc3ccc(-c4ccc(CC(=O)O)cc4C)cc3C)cc2C(=O)N(C)c2cccnc21 [Entry 1023]	–	–	50 to 100	–
CCN1c2ncc(CCOc3ccc(-c4cncnc4)cc3)cc2C(=O)N(C)c2cccnc21 [Entry 1062]	–	< 50	> 100	–
CCN1c2ncc(CCOc3ccc(-c4ccc(CCC(=O)O)o4)cc3)cc2C(=O)N(C)c2cccnc21 [Entry 1048]	–	–	> 100	IC50 [3]: < 50 nM
CCN1c2ncc(CCOc3ccc(C(=O)Nc4ccc[n+]([O-])c4)cc3C)cc2C(=O)N(C)c2cccnc21 [Entry 3013]	< 50	< 50	–	–
CCN1c2ncc(CCOc3ccc(-c4cnccc4C)cc3C)cc2C(=O)N(C)c2cccnc21 [Entry 1076, 11-Ethyl-5,11-dihydro-5-methyl-8-{2-[2-methyl-4-(4-methyl-3-pyridinyl)phenoxy]ethyl}-6H-dipyrido[3,2-b:2′,3′-e][1,4]diazepin-6-one]	< 50	< 50	–	–
CCN1c2ncc(CCOc3ccc(-c4cc(C(=O)O)ccc4F)cc3C)cc2C(=O)N(C)c2cccnc21 [Entry 1029]	–	< 50	50 to 100	–
CCN1c2ncc(CCOc3ccc(-c4ncccn4)cc3)cc2C(=O)N(C)c2cccnc21 [Entry 1061]	–	< 50	> 100	–
CCN1c2ncc(CCOc3ccc(-c4ccc(F)c(CC(=O)O)c4)cc3C)cc2C(=O)N(C)c2cccnc21 [Entry 1057]	–	< 50	< 50	–
CCN1c2ncc(CCOc3ccc(-c4cc(C)[n+]([O-])c(C)c4)cc3C)cc2C(=O)N(C)c2cccnc21 [Entry 1088]	–	< 50	< 50	–
CCN1c2ncc(CCOc3ccc(C(=O)Nc4cccc[n+]4[O-])cc3C)cc2C(=O)N(C)c2cccnc21 [Entry 3015]	< 50	< 50	–	–
CCN1c2ncc(CCOc3ccc(-c4cc(C(=O)O)on4)cc3)cc2C(=O)N(C)c2cccnc21 [Entry 1040]	–	< 50	> 100	–
CCN1c2ncc(CCOc3ccc(-c4ccc(C(=O)O)c(F)c4)cc3C)cc2C(=O)N(C)c2cccnc21 [Entry 1018]	–	< 50	< 50	–
CCN1c2ncc(CCOc3cccc(-c4ccc(C(=O)O)cc4)c3)cc2C(=O)N(C)c2cccnc21 [Entry 2001, 3′-[2-(11-Ethyl-6,11-dihydro-5-methyl-6-oxo-5H-dipyrido[3,2-b:2′,3′-e][1,4]diazepin-8-yl)ethoxy]-[1,1′-biphenyl]-4-carboxylic acid]	–	> 100	–	–

SMILES	IC50 [1] [nM]	IC50 ([3]; wild type RT) [nM]	IC50 [1, 5] [nM]	also measured
CCN1c2ncc(CCOc3ccc(-c4cnc(N)c(C)c4)cc3C)cc2C(=O)N(C)c2cccnc21 [Entry 1080]	–	< 50	< 50	–
CCN1c2ncc(CCOc3ccc(C(=O)NCc4ccc(C(=O)O)cc4)cc3C)cc2C(=O)N(C)c2cccnc21 [Entry 3002]	< 50	< 50	–	–
CCN1c2ncc(CCOc3ccc(NC(C)=O)cc3C)cc2C(=O)N(C)c2cccnc21 [Entry 4001]	50 to 100	< 50	–	–
CCN1c2ncc(CCOc3ccc(-c4cccnc4C)cc3C)cc2C(=O)N(C)c2cccnc21 [Entry 1074]	–	< 50	< 50	–
CCN1c2ncc(CCOc3ccc(-c4nc(C(=O)O)cs4)cc3)cc2C(=O)N(C)c2cccnc21 [Entry 1039]	–	< 50	> 100	–
CCN1c2ncc(CCOc3ccc(C(=O)NCc4cc[n+]([O-])cc4)cc3C)cc2C(=O)N(C)c2cccnc21 [Entry 3003]	50 to 100	< 50	–	–
CCN1c2ncc(CCOc3cccc(-c4cccc(C(=O)O)c4)c3)cc2C(=O)N(C)c2cccnc21 [Entry 2002]	–	> 100	–	–
CCN1c2ncc(CCOc3ccc(-c4ccc(N)nc4)cc3C)cc2C(=O)N(C)c2cccnc21 [Entry 1079]	–	< 50	< 50	–
CCN1c2ncc(CCOc3ccc(NC(=O)c4ccc(Cl)nc4)cc3C)cc2C(=O)N(C)c2cccnc21 [Entry 3035]	< 50	< 50	–	–
CCN1c2ncc(CCOc3ccc(-c4cccc(C(C)C(=O)O)c4)cc3C)cc2C(=O)N(C)c2cccnc21 (stereo not drawn) [Entry 1016]	–	< 50	50 to 100	–
CCN1c2ncc(CCOc3ccc(-c4cc(C)cnc4N)cc3C)cc2C(=O)N(C)c2cccnc21 [Entry 1082]	–	< 50	< 50	–
CCN1c2ncc(CCOc3ccc(C(=O)NN)cc3C)cc2C(=O)Nc2c(C)ccnc21 [Entry 4019]	–	< 50	50 to 100	–
CCN1c2ncc(CCOc3ccc(-c4ccc(C(=O)O)o4)cc3)cc2C(=O)N(C)c2cccnc21 [Entry 1045]	–	< 50	50 to 100	–
CCN1c2ncc(CCOc3ccc(-c4occc4C(=O)O)cc3)cc2C(=O)N(C)c2cccnc21 [Entry 1050]	–	> 100	–	–
CCN1c2ncc(CCOc3ccc(-c4cscn4)cc3)cc2C(=O)N(C)c2cccnc21 [Entry 1092]	–	< 50	> 100	–
CCN1c2ncc(CCOc3cccc(-c4ccccc4)c3)cc2C(=O)N(C)c2cccnc21 [Entry 2003]	> 100	< 50	–	–
CCN1c2ncc(CCOc3ccc(-c4cc(C)ccn4)cc3C)cc2C(=O)N(C)c2cccnc21 [Entry 1065]	–	< 50	< 50	–
CCN1c2ncc(CCOc3ccc(N(CC(=O)O)C(C)=O)cc3C)cc2C(=O)N(C)c2cccnc21 [Entry 4002]	> 100	< 50	–	–
CCN1c2ncc(CCOc3ccc(-c4c[n+]([O-])ccc4C)cc3C)cc2C(=O)N(C)c2cccnc21 [Entry 1077, 11-Ethyl-5,11-dihydro-5-methyl-8-{2-[2-methyl-4-(4-methyl-1-oxido-3-pyridinyl)phenoxy]ethyl}-6H-dipyrido[3,2-b:2′,3′-e][1,4]diazepin-6-one]	< 50	< 50	–	–
CCN1c2ncc(CCOc3ccc(-c4cc[n+]([O-])cc4)cc3C)cc2C(=O)N(C)c2cccnc21 [Entry 1084]	–	< 50	< 50	–
CCN1c2ncc(CCOc3ccc(-c4cc(Cl)c(C(=O)O)cc4F)cc3C)cc2C(=O)N(C)c2cccnc21 [Entry 1020]	–	< 50	< 50	–
CCN1c2ncc(CCOc3ccc(-c4cc(C(=O)O)ccc4OC)cc3C)cc2C(=O)N(C)c2cccnc21 [Entry 1030]	–	< 50	> 100	–
CCN1c2ncc(CCOc3ccc(-c4ccc(C)cc4)cc3C)cc2C(=O)N(C)c2cccnc21 [Entry 1105]	–	< 50	< 50	–
CCN1c2ncc(CCOc3ccc(-c4ccc(CCC(=O)O)o4)cc3C)cc2C(=O)N(C)c2cccnc21 [Entry 1049]	–	–	> 100	IC50 [3]: < 50 nM
CCN1c2ncc(CCOc3ccc(-c4ccc(N)nc4C)cc3C)cc2C(=O)N(C)c2cccnc21 [Entry 1081]	–	< 50	< 50	–
CCN1c2ncc(CCOc3ccc(C(=O)N(C)Cc4ccc(C(=O)O)cc4)cc3C)cc2C(=O)N(C)c2cccnc21 [Entry 3006]	50 to 100	< 50	–	–

Reference: patent US6806265B2, “Non-nucleoside reverse transcriptase inhibitors” (priority 2002, dated 2004)
